Source: patent US11325889B2, “Substituted 3-((3-aminophenyl)amino)piperidine-2,6-dione compounds, compositions thereof, and methods of treatment therewith” (Celgene Corporation, priority 2018, dated 2022)

Target: T1, AR protein in VCaP cells (Homo sapiens, UniProt P10275)
T1 construct: endogenous in cells; host or cells: VCaP cells
T1 sequence (P10275 1-920): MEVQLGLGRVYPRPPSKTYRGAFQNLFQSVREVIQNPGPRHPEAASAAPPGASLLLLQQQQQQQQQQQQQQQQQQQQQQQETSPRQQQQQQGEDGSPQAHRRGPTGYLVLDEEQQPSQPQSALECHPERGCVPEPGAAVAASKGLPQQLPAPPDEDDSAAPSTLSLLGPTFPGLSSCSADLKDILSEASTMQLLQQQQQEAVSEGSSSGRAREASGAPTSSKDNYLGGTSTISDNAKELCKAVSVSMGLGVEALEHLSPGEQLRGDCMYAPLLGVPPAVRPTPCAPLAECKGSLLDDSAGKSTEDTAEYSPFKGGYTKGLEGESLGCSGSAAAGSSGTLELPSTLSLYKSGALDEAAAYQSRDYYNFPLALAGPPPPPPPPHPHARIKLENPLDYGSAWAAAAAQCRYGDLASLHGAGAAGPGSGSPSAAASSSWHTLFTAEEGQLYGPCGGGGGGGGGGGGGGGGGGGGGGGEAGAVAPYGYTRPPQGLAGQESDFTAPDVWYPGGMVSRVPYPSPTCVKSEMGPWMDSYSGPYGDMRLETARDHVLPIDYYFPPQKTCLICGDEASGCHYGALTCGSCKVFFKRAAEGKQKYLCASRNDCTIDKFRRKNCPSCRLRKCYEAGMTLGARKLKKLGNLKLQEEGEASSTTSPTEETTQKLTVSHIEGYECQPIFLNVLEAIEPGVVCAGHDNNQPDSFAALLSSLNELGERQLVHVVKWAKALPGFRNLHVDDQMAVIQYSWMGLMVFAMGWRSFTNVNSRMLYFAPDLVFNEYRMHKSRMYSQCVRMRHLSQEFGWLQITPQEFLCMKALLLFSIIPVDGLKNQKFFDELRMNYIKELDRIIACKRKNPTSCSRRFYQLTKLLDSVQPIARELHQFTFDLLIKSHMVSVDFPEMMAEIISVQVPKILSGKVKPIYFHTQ
Assay: VCAP AR Degradation Assay (AR ELISA, 24 h)
Type: cell-based
Details: for Y (lowest measured AR level normalized to DMSO control): AR degradation efficiency; for DC50: concentration of compound when AR level = 50% of DMSO control, read-out: DC50
Outline: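 VCaP cells in DMEM with 8% FBS exposed for 24 h at 37° C to a 10-point, 1:3 series (final top concentration […]; 0.1% DMSO control). Lysate AR measured by sandwich ELISA and normalized to DMSO as percent of control. DC50, EC50 and lowest AR level (Y) from four-parameter logistic fit.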

Structure (SMILES) | Y (lowest measured AR level normalized to DMSO control) | DC50 [nM]
CCc1cc(N2C(=S)N(c3cnc(C#N)c(C(F)(F)F)c3)C(=O)C23CCC3)ccc1OCCC1CCN([C@@H](C)C(=O)Nc2cc(NC3CCC(=O)NC3=O)ccc2F)CC1 (stereo partly drawn) [Cmpd 85, (2S)-2-(4-(2-(4-(7-(6-cyano-5-(trifluoromethyl)pyridin-3-yl)-8-oxo-6-thioxo-5,7-diazaspiro[3.4]octan-5-yl)-2-ethylphenoxy)ethyl)piperidin-1-yl)-N-(5-(2,6-dioxopiperidin-3-ylamino)-2-fluorophenyl)propanamide] | * (0<Y<=25%) | 100 to 500
CCc1cc(N2C(=S)N(c3cnc(C#N)c(C(F)(F)F)c3)C(=O)C23CCC3)ccc1OCCC1CCN([C@H](C)C(=O)Nc2cc(NC3CCC(=O)NC3=O)ccc2F)CC1 (stereo partly drawn) [Cmpd 86, (2R)-2-(4-(2-(4-(7-(6-cyano-5-(trifluoromethyl)pyridin-3-yl)-8-oxo-6-thioxo-5,7-diazaspiro[3.4]octan-5-yl)-2-ethylphenoxy)ethyl)piperidin-1-yl)-N-(5-(2,6-dioxopiperidin-3-ylamino)-2-fluorophenyl)propanamide] | * (0<Y<=25%) | 100 to 500
CCc1cc(N2C(=S)N(c3cnc(C#N)c(C(F)(F)F)c3)C(=O)C2(C)C)ccc1OC1C[C@H]2CC[C@@H](C1)N2CC(=O)Nc1cccc(NC2CCC(=O)NC2=O)c1 (stereo partly drawn) [Cmpd 87, 2-((1R,3s,5S)-3-(4-(3-(6-cyano-5-(trifluoromethyl)pyridin-3-yl)-5,5-dimethyl-4-oxo-2-thioxoimidazolidin-1-yl)-2-ethylphenoxy)-8-azabicyclo[3.2.1]octan-8-yl)-N-(3-(2,6-dioxopiperidin-3-ylamino)phenyl)acetamide] | *** (35%<Y<50%) | 500 to 1000
CCc1cc(N2C(=S)N(c3ccc(C#N)c(C(F)(F)F)c3)C(=O)C2(C)C)ccc1OCCC1(F)CCN(CC(=O)Nc2cccc(NC3CCC(=O)NC3=O)c2)CC1 (stereo not drawn) [Cmpd 88, 2-(4-(2-(4-(3-(4-cyano-3-(trifluoromethyl)phenyl)-5,5-dimethyl-4-oxo-2-thioxoimidazolidin-1-yl)-2-ethylphenoxy)ethyl)-4-fluoropiperidin-1-yl)-N-(3-(2,6-dioxopiperidin-3-ylamino)phenyl)acetamide] | * (0<Y<=25%) | < 100
CCc1cc(N2C(=S)N(c3cnc(C#N)c(C(F)(F)F)c3)C(=O)C2(C)C)ccc1OCCC1(F)CCN(CC(=O)Nc2cccc(NC3CCC(=O)NC3=O)c2)CC1 (stereo not drawn) [Cmpd 89, 2-(4-(2-(4-(3-(6-cyano-5-(trifluoromethyl)pyridin-3-yl)-5,5-dimethyl-4-oxo-2-thioxoimidazolidin-1-yl)-2-ethylphenoxy)ethyl)-4-fluoropiperidin-1-yl)-N-(3-(2,6-dioxopiperidin-3-ylamino)phenyl)acetamide] | * (0<Y<=25%) | < 100
CCc1cc(N2C(=S)N(c3ccc(C#N)c(C(F)(F)F)c3)C(=O)C2(C)C)ccc1OCCC1(F)CCN(CC(=O)Nc2cc(Cl)cc(NC3CCC(=O)NC3=O)c2)CC1 (stereo not drawn) [Cmpd 90, N-(3-chloro-5-(2,6-dioxopiperidin-3-ylamino)phenyl)-2-(4-(2-(4-(3-(4-cyano-3-(trifluoromethyl)phenyl)-5,5-dimethyl-4-oxo-2-thioxoimidazolidin-1-yl)-2-ethylphenoxy)ethyl)-4-fluoropiperidin-1-yl)acetamide] | * (0<Y<=25%) | < 100
CC(C)c1cc(N2C(=S)N(c3ccc(C#N)c(C(F)(F)F)c3)C(=O)C2(C)C)ccc1OCC[C@@H]1CCN(CC(=O)Nc2cccc(NC3CCC(=O)NC3=O)c2)[C@H](C)C1 (stereo partly drawn) [Cmpd 91, 2-((2R,4R)-4-(2-(4-(3-(4-cyano-3-(trifluoromethyl)phenyl)-5,5-dimethyl-4-oxo-2-thioxoimidazolidin-1-yl)-2-isopropylphenoxy)ethyl)-2-methylpiperidin-1-yl)-N-(3-(2,6-dioxopiperidin-3-ylamino)phenyl)acetamide] | ** (25%<Y<=35%) | 500 to 1000
CC(C)c1cc(N2C(=S)N(c3ccc(C#N)c(C(F)(F)F)c3)C(=O)C2(C)C)cnc1OCC[C@H]1C[C@@H](C)N(CC(=O)Nc2cccc(NC3CCC(=O)NC3=O)c2)[C@@H](C)C1 (stereo partly drawn) [Cmpd 94, 2-((2S,4r,6R)-4-(2-((5-(3-(4-cyano-3-(trifluoromethyl)phenyl)-5,5-dimethyl-4-oxo-2-thioxoimidazolidin-1-yl)-3-isopropylpyridin-2-yl)oxy)ethyl)-2,6-dimethylpiperidin-1-yl)-N-(3-((2,6-dioxopiperidin-3-yl)amino)phenyl)acetamide] | ** (25%<Y<=35%) | 500 to 1000
CCc1cc(N2C(=S)N(c3ccc(C#N)c(C(F)(F)F)c3)C(=O)C2(C)C)cnc1O[C@H]1C[C@@H](C)N(CC(=O)Nc2cccc(NC3CCC(=O)NC3=O)c2)[C@@H](C)C1 (stereo partly drawn) [Cmpd 95, 2-((2R,4r,6S)-4-((5-(3-(4-cyano-3-(trifluoromethyl)phenyl)-5,5-dimethyl-4-oxo-2-thioxoimidazolidin-1-yl)-3-ethylpyridin-2-yl)oxy)-2,6-dimethylpiperidin-1-yl)-N-(3-((2,6-dioxopiperidin-3-yl)amino)phenyl)acetamide] | ** (25%<Y<=35%) | 500 to 1000
